Target: Cj1427 (Campylobacter jejuni, UniProt Q0P8I7)
Assay: stopped-flow NADH fluorescence, single turnover, global fit by simulation
Assay type: binding

Sequence of Cj1427 (Q0P8I7 whole entry): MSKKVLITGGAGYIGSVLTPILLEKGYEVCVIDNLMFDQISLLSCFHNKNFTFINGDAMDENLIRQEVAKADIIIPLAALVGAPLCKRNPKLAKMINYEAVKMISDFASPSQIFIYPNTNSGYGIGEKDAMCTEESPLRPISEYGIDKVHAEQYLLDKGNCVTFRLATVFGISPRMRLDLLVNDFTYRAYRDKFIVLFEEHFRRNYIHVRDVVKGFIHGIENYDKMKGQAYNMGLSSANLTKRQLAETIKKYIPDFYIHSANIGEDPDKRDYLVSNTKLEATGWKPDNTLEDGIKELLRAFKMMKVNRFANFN

## O=C(O)CCC(=O)C(=O)O [α-ketoglutarate]
  Kd: 165 µM
